Target: T1, Pent (designed pentameric 5-bladed β-propeller lectin, 5c2n-N33K)
T1 construct: 47-residue monomer (lacking Met1), homopentamer of ~26 kDa; designed, based on tachylectin-2 (PDB 5C2N)
Assay: X-ray cocrystal structures (forms I and II); 1H-15N HSQC NMR titration
Format: binding, synthetic construct

With `O=S(=O)(O)c1cc2c(O)c(c1)Cc1cc(S(=O)(=O)O)cc(c1O)Cc1cc(S(=O)(=O)O)cc(c1O)Cc1cc(S(=O)(=O)O)cc(c1O)Cc1cc(S(=O)(=O)O)cc(c1O)Cc1cc(S(=O)(=O)O)cc(c1O)Cc1cc(S(=O)(=O)O)cc(c1O)Cc1cc(S(=O)(=O)O)cc(c1O)C2` [sclx8, sulfonato-calix[8]arene] the Kd was under 3000 nM.

From article PMC10865345, “Multivalent Calixarene Complexation of a Designed Pentameric Lectin” (Biomacromolecules, 2024)
